In patent US20220009920A1 (GB005, Inc., priority 2020, published 2022):

Experiments:
Experiment in all cases: Large panel kinase profiling
Format in all cases: biochemical
Details in all cases: 1 μM test article, 1 mM ATP
[1] = target: T1, MAPK14/P38A (Homo sapiens, UniProt Q16539)
T1 construct: AssayQuant Technologies, Inc. (service provider)
Procedure, shortened: (§1)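 Activity is measured in real time from the CSox sensor's fluorescence at 485 nm after 360 nm excitation, sampled every minute. Assays run at 30° C. with 1 mM ATP and a single 1 μM compound dose.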

[2] = target: AKT2 (Homo sapiens, UniProt P31751)
Procedure, shortened: as §1

[3] = target: PKN2 (Homo sapiens, UniProt Q16513)
Procedure, shortened: as §1

[4] = target: T2, DYRK3 (Homo sapiens, UniProt O43781)
T2 construct: AssayQuant Technologies, Inc. (service laboratory)
T2 sequence (O43781 1-588): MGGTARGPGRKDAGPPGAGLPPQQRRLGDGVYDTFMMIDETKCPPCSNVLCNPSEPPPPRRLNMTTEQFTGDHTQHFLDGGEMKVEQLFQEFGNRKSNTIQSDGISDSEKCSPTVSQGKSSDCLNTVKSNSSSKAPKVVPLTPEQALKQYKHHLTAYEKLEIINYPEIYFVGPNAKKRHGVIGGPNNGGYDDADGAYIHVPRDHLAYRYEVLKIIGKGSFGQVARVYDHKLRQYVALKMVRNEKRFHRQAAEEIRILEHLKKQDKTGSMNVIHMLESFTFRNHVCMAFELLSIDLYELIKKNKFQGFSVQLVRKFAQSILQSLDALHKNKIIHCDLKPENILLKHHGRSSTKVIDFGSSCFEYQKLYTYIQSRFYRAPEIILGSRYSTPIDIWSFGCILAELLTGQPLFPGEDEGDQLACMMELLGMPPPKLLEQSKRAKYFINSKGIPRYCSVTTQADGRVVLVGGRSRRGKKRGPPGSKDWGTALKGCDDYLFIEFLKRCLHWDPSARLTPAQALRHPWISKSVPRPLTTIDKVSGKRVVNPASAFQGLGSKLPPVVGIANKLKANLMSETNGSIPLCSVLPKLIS
Procedure, shortened: as §1

[5] = target: EPHA4 (Homo sapiens, UniProt P54764)
Procedure, shortened: as §1

[6] = target: T3, ULK1 (Homo sapiens, UniProt O75385)
T3 construct: AssayQuant Technologies, Inc. (contract laboratory that ran the panel)
T3 sequence (O75385 1-1050): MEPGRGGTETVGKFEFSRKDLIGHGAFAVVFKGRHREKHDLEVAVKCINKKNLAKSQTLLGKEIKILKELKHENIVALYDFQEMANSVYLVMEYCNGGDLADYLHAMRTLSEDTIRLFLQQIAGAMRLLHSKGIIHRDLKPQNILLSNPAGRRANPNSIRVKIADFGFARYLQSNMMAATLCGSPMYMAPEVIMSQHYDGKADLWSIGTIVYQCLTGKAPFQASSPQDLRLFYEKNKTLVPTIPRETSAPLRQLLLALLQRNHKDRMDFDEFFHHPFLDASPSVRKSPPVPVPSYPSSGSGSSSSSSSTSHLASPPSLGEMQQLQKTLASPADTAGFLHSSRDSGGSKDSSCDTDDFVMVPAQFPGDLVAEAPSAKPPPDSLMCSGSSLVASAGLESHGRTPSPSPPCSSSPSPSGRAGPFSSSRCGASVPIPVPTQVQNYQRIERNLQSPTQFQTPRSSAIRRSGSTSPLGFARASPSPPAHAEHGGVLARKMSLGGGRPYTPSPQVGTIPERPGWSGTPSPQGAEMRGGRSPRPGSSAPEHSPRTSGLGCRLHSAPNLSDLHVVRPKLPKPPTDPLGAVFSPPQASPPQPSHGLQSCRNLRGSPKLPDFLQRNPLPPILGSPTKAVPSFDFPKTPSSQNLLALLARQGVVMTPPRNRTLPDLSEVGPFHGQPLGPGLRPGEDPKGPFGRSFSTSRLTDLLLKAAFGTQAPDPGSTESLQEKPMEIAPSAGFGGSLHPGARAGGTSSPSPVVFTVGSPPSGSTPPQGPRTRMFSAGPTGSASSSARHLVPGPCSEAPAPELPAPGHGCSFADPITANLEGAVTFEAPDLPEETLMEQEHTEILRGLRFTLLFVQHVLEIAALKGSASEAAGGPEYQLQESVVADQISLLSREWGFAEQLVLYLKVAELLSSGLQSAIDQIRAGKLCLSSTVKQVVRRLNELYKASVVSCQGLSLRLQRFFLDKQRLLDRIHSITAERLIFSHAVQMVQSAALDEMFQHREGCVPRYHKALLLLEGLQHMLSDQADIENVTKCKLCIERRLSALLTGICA
Procedure, shortened: as §1

[7] = target: T4, TYK2(JH1JH2) (Homo sapiens, UniProt P29597)
T4 construct: TYK2(JH1JH2); AssayQuant Technologies, Inc. (contract laboratory that ran the panel)
Procedure, shortened: as §1

[8] = target: T5, CDC42BPB/MRCKB (Homo sapiens, UniProt Q9Y5S2)
T5 construct: AssayQuant Technologies, Inc. (ran the panel)
Procedure, shortened: as §1

[9] = target: AKT3 (Homo sapiens, UniProt Q9Y243)
Procedure, shortened: as §1

T5 sequence (Q9Y5S2 whole entry): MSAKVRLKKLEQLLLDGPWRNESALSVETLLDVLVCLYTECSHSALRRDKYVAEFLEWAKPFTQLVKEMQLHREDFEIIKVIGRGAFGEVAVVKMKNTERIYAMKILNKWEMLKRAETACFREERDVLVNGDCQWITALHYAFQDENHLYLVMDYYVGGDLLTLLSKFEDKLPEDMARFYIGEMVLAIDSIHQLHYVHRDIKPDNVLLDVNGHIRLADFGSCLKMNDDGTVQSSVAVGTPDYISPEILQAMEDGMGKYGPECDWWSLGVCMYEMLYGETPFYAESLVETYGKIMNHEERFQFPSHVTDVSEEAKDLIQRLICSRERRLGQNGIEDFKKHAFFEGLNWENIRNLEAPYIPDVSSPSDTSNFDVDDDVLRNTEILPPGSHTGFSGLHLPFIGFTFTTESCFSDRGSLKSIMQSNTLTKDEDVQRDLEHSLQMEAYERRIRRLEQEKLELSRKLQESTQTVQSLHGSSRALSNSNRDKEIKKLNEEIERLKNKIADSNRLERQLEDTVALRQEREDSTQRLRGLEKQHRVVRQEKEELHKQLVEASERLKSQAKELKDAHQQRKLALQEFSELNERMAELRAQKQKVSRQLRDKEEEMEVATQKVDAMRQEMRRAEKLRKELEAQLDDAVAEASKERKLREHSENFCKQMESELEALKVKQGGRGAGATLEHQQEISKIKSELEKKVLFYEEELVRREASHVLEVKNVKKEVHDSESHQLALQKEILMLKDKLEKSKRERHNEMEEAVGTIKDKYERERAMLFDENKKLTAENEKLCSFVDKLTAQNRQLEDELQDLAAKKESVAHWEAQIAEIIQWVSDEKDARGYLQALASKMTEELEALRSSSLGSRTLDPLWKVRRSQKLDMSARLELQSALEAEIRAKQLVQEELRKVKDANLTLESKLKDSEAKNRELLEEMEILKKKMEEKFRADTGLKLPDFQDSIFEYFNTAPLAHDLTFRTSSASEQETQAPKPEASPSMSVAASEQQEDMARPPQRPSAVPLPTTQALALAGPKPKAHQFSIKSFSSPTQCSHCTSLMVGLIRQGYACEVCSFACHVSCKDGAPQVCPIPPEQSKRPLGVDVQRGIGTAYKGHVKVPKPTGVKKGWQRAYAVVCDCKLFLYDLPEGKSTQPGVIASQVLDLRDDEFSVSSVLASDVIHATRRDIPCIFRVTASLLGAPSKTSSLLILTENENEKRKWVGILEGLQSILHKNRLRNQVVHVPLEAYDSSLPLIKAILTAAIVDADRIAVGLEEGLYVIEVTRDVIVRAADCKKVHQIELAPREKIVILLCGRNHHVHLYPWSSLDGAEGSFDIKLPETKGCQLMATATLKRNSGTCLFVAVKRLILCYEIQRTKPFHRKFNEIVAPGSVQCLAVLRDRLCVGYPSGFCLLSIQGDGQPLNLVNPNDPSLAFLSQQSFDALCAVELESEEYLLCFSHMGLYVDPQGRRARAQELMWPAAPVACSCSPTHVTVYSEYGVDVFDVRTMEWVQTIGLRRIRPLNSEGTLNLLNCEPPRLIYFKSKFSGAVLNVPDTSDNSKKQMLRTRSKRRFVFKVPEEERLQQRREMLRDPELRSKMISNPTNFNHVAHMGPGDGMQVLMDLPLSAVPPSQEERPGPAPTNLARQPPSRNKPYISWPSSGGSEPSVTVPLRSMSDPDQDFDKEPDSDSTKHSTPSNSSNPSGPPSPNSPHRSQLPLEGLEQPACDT
Chain of AKT3 (Q9Y243 whole entry): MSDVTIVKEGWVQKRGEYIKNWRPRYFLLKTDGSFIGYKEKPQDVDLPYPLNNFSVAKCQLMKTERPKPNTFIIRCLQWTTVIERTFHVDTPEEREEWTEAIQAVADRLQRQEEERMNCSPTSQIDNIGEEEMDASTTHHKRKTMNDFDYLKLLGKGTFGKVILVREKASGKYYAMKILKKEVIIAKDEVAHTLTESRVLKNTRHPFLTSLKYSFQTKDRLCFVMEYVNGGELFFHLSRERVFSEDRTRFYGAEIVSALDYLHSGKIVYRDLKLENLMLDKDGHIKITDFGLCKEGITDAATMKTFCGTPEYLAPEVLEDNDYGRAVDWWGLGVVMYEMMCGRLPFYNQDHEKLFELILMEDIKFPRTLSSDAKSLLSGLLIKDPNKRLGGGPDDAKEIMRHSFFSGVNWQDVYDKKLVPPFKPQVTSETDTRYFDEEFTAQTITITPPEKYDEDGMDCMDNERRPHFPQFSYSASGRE
Chain of AKT2 (P31751 whole entry): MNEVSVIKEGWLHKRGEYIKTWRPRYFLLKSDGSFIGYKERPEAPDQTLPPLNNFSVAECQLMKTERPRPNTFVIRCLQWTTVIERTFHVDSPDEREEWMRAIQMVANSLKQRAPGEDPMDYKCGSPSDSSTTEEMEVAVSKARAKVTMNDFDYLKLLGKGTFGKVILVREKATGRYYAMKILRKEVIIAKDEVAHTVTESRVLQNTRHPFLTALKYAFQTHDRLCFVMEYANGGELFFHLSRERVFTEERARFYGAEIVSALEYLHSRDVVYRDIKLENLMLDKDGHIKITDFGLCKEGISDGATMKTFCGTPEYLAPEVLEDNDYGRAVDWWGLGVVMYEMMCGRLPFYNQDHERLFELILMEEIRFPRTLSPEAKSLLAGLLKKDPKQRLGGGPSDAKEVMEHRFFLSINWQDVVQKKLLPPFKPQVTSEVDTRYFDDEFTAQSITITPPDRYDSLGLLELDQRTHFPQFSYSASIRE
T4 sequence (P29597 575-1187 limits assumed, species assumed): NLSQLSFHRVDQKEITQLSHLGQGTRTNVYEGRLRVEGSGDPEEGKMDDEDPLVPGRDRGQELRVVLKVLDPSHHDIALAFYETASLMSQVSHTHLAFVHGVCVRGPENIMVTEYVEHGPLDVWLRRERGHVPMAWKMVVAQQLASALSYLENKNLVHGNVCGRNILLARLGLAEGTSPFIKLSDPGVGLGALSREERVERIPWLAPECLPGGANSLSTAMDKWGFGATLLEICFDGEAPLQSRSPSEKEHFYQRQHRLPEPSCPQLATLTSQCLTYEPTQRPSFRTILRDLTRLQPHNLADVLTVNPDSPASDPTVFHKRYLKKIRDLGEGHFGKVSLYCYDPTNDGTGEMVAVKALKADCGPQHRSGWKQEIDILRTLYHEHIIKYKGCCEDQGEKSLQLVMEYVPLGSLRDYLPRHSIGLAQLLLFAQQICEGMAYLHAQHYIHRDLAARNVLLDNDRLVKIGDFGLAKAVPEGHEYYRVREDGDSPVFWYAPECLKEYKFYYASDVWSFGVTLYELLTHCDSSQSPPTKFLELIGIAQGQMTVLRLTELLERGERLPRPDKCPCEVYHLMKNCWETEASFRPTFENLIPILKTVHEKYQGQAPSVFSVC
Chain of PKN2 (Q16513 whole entry, species assumed): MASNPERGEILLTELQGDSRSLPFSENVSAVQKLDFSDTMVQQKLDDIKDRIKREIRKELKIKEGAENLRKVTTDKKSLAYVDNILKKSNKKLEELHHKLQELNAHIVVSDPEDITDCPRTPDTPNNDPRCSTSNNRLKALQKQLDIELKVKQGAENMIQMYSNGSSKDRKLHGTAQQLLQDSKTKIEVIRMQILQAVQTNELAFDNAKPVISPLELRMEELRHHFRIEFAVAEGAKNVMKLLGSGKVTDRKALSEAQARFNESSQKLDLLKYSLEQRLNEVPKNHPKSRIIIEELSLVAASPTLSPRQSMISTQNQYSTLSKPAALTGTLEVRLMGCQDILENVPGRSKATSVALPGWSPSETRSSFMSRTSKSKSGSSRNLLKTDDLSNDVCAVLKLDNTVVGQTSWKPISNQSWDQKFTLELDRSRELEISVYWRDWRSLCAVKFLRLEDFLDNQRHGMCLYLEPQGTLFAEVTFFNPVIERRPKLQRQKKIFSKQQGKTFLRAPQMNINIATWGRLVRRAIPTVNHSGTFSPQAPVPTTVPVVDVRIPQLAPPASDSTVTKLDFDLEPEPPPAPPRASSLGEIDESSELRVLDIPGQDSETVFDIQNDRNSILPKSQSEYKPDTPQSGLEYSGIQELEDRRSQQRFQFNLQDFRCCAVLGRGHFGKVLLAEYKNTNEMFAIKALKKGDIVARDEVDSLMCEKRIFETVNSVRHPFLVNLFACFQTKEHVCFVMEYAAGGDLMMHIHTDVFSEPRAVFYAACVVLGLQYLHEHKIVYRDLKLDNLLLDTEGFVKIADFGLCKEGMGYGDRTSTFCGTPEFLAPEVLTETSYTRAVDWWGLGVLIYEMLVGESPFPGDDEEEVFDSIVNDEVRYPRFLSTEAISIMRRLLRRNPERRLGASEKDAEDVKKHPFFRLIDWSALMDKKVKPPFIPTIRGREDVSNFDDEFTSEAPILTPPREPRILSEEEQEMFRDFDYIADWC
T1 sequence (Q16539 2-360 limits assumed): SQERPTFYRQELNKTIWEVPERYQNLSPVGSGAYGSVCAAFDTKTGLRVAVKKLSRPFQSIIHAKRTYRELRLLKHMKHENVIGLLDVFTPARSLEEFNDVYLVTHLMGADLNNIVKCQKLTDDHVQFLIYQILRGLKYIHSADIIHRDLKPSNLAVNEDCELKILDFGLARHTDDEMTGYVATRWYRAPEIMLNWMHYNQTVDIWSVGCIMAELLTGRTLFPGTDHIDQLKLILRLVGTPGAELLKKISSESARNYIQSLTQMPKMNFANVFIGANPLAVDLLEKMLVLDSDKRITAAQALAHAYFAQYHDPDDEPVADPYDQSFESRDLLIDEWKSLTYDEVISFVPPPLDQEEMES

SMILES | inhibition at 1 µM [1] [%] | inhibition at 1 µM [2] [%] | inhibition at 1 µM [3] [%] | inhibition at 1 µM [4] [%] | inhibition at 1 µM [5] [%] | inhibition at 1 µM [6] [%] | inhibition at 1 µM [7] [%] | inhibition at 1 µM [8] [%] | inhibition at 1 µM [9] [%]
C=CC(=O)N1CCCC(c2c(F)cc(C(N)=O)c3[nH]c4c(c23)CCCCC4)C1 (single isomer, unassigned) [Compound 5-6] | -8.3 | 0.5 | 0.7 | 2.8 | 4.2 | -3.1 | 18.9 | -31 | -14.4
C=CC(=O)N1CCC[C@@H](c2c(F)cc(C(N)=O)c3[nH]c4c(c23)CC2(CC4)CC2)C1 [Compound 6-2, (S)-5-(1-acryloylpiperidin-3-yl)-6-fluoro-1,2,4,9-tetrahydrospiro[carbazole-3,1′-cyclopropane]-8-carboxamide] | 28.2 | 0.4 | 16.2 | -4.9 | 4.9 | -23.6 | -27.1 | -12.6 | -16.3
C=CC(=O)N1CCC[C@@H](c2c(F)cc(C(N)=O)c3[nH]c4c(c23)CCC4)C1 [Compound 10-2, (S)-8-(1-acryloylpiperidin-3-yl)-7-fluoro-1,2,3,4-tetrahydrocyclo-penta[b]indole-5-carboxamide] | 5 | 11.9 | 7.5 | -3.3 | -44.2 | -6.1 | 28.6 | -10.2 | -19.4
